Laboratory results as given in US8410113B2, “(2R)-1-(3-chloro-2-pyrazinyl)-2-methylpiperazine and salts thereof” (Biovitrum AB (publ), priority 2002, dated 2013).

How the values were obtained:
[1] = Crystallinity (X-rays / powder X-ray diffraction); format: physicochemical; conditions: for Crystallinity (Powder X-Ray Diffraction): salts of Example 2C; for Crystallinity (X-Rays): salts of Example 2A
From the text: (§1) Crystallinity (Powder X-Ray Diffraction)
as §1

Solubility = conditions: salts of Example 2C
From the text: Solubility (Water, pH 1.2 and pH 7.4 Buffers)
(§2) Solubility and Intrinsic Dissolution Rate

[2] = Hygroscopicity (DVS, storage at RT/different RHs and at 40° C./75% RH); format: physicochemical
Protocol: Hygroscopicity (DVS, Storage at RT/Different RHs and at 40° C./75% RH)

[3] = Chemical stability (2 weeks at 65° C.); format: physicochemical; conditions: salts of Example 2A, also RT/90% RH
Protocol: Chemical Stability (2 Weeks at 65° C.)

[4] = Intrinsic dissolution rate; format: physicochemical; conditions: salts of Example 2B
From the text: Intrinsic Dissolution Rate (pH 1.2)
as §2

[5] = purified water, preliminary studies
[6] = salts of Example 2A, DVS, storage at RT/different RHs

Compound	Crystallinity (Powder X-Ray Diffraction) [1]	Hygroscopicity ([2]; salts of Example 2C)	further results
(2R)-1-[3-(2-{[2-(2-dimethylaminoethoxy)-3-pyridinyl]oxy}ethoxy)-2-pyrazinyl]-2-methylpiperazine, 1,3,5-benzenetricarboxylate	predominantly crystalline	low	solubility (in words, comparison of salts) (Solubility): lower than for the phosphoric acid salt; solubility (Solubility; SGF (simulated gastric fluid without enzymes; pH of filtrate 2.9), preliminary studies): > 19 mg/mL; solubility (Solubility; SIF (simulated intestinal fluid without enzymes; pH of filtrate 4.2), preliminary studies): 11 mg/mL; solubility (Solubility; [5]): ≈ 4 mg/ml
(2R)-1-[3-(2-{[2-(2-dimethylaminoethoxy)-3-pyridinyl]oxy}ethoxy)-2-pyrazinyl]-2-methylpiperazine, 1,5-naphthalenedisulfonate	predominantly crystalline	moderate	solubility (Solubility; medium not stated): > 540 mg/mL
C[C@@H]1CNCCN1c1nccnc1OCCOc1cccnc1OCCN(C)C.O=C(O)[C@@H](O)[C@H](O)[C@H](O)[C@@H](O)C(=O)O [galactareate, (2R)-1-[3-(2-{[2-(2-dimethylaminoethoxy)-3-pyridinyl]oxy}ethoxy)-2-pyrazinyl]-2-methylpiperazine, galactareate (mucic acid salt)]	partially amorphous	–	–
(2R)-1-[3-(2-{[2-(2-dimethylaminoethoxy)-3-pyridinyl]oxy}ethoxy)-2-pyrazinyl]-2-methylpiperazine, terephthalate	predominantly crystalline	hight (deliquescent)	solubility (Solubility; [5]): < 1 mg/mL
(2R)-1-(3-{2-[(2-ethoxy-3-pyridinyl)oxy]ethoxy}-2-pyrazinyl)-2-methylpiperazine, fumarate [reference compound]	–	–	Crystallinity (X-Rays) [1]: lower crystallinity; Hygroscopicity [2, 6]: hydrate conversion; Chemical stability [3]: less stable
C[C@@H]1CNCCN1c1nccnc1OCCOc1cccnc1.Cl [hydrochloride, (2R)-methyl-1-{3-[2-(3-pyridinyloxy)ethoxy]-2-pyrazinyl}piperazine, hydrochloride, reference compound]	–	–	Crystallinity (X-Rays) [1]: lower crystallinity; Hygroscopicity [2, 6]: deliquescent
C[C@@H]1CNCCN1c1nccnc1OCCOc1cccnc1OCCN(C)C.O=C(O)CC(O)(CC(=O)O)C(=O)O [citrate, (2R)-1-[3-(2-{[2-(2-dimethylaminoethoxy)-3-pyridinyl]oxy}ethoxy)-2-pyrazinyl]-2-methylpiperazine, citrate]	practically amorphous	very hygroscopic and deliquescent	–
CCOc1ncccc1OCCOc1nccnc1N1CCNC[C@H]1C [Example 2B, (2R)-1-(3-{2-[(2-ethoxy-3-pyridinyl)oxy]ethoxy}-2-pyrazinyl)-2-methylpiperazine]	–	–	intrinsic dissolution rate (in words, order) [4]: base<fumarate<succinate
C[C@@H]1CNCCN1c1nccnc1OCCOc1cccnc1OCCN(C)C.O=C(O)CN(CCN(CC(=O)O)CC(=O)O)CC(=O)O [edeteate, (2R)-1-[3-(2-{[2-(2-dimethylaminoethoxy)-3-pyridinyl]oxy}ethoxy)-2-pyrazinyl]-2-methylpiperazine, edeteate]	practically amorphous	very hygroscopic and deliquescent	–
C[C@@H]1CNCCN1c1nccnc1OCCOc1cccnc1OCCN(C)C.O=C(O)C(O)C(O)C(=O)O [D-tartrate, (2R)-1-[3-(2-{[2-(2-dimethylaminoethoxy)-3-pyridinyl]oxy}ethoxy)-2-pyrazinyl]-2-methylpiperazine, D-tartrate]	low degree of crystallinity	very hygroscopic and deliquescent	–
